# Test results from US7074785B2, “Δ1-pyrrolines used as pesticides” (Bayer Cropscience AG, priority 2001, dated 2006).
# Where two headings read alike, the source gives them in different places.
# Experiments:
# [1] = logP determination by HPLC (reversed-phase C18, EEC Directive 79/831 Annex V.A8); type: physicochemical
# Protocol: The logP values stated in the above tables and Preparation Examples are determined in accordance with EEC Directive 79/831 Annex V.A8 by HPLC (High Performance Liquid Chromatography) using a reversed-phase column (C 18). Temperature: 43° C.
# In the acidic range at pH 2.3 the determination takes place using 0.1% aqueous phosphoric acid and acetonitrile as the mobile phases; linear gradient from 10% acetonitrile to 90% acetonitrile. Corresponding results are marked in the tables by “a)”
# In the neutral range at pH 7.5 the determination takes place using 0.01 molar aqueous phosphate buffer solution and acetonitrile as the mobile phases; linear gradient from 10% acetonitrile to 90% acetonitrile. Corresponding results are marked in the tables by “b)”
# Calibration is carried out using unbranched alkan-2-ones (having 3 to 16 carbon atoms), with known logP values (the logP values determined on the basis of the retention times using linear interpolation between two successive alkanones).
# [2] = system: larvae of the mustard beetle (Phaedon cochleariae); assay: Phaedon larvae test; conditions: in Brassica oleracea, 168 h
# [3] = system: greenhouse red spider mite (Tetranychus urticae); assay: Tetranychus test (OP resistant/dip treatment); type: in vivo; conditions: 168 h
# Protocol: Tetranychus Test (OP Resistant/Dip Treatment)
# Solvent: 7 parts by weight of dimethylformamide
# After the desired period of time, the effect in % is determined.
# [4] = system: army worm (Spodoptera frugiperda) caterpillars; assay: Spodoptera frugiperda test; type: in vivo; conditions: in Brassica oleracea, 168 h
# [5] = HPLC, acidic range pH 2.3, 0.1% aqueous phosphoric acid/acetonitrile; marked a), read-out: log P (pH 2.3)
# [6] = HPLC, neutral range pH 7.5, 0.01 molar phosphate buffer/acetonitrile; marked b), read-out: log P (pH 7.5)
# [7] = read-out: Kill rate in % after 7 d, 100 ppm, cabbage leaves dipped, Phaedon cochleariae larvae
# [8] = read-out: Kill rate in % after 7 d, 100 ppm, bean plants dipped, Tetranychus urticae OP-resistant
# [9] = read-out: Kill rate in % after 7 d, 100 ppm, cabbage leaves dipped, Spodoptera frugiperda
# [10] = reversed-phase C18 HPLC column; HPLC, acidic range pH 2.3, 0.1% aqueous phosphoric acid/acetonitrile; marked a), read-out: log P (pH 2.3)
# [11] = reversed-phase C18 HPLC column; HPLC, neutral range pH 7.5, 0.01 molar phosphate buffer/acetonitrile; marked b), read-out: log P (pH 7.5)
# [12] = 100 ppm, bean plants dipped, Tetranychus urticae OP-resistant, read-out: Kill rate in % after 7 d
# [13] = 100 ppm, cabbage leaves dipped, read-out: Kill rate in % after 7 d
# [14] = read-out: Kill rate in % after 7 d
Structure (SMILES),"chromatographic logP [1, 5]","chromatographic logP [1, 6]","pest or weed control at 100 ppm [2, 7] [%]","pest or weed control at 100 ppm [3, 8] [%]","pest or weed control at 100 ppm [4, 9] [%]",further results
"COC(=O)Nc1ccc(-c2ccc(C3CCC(c4c(F)cccc4F)=N3)cc2)cc1 (stereo not shown) [Compound 1, methyl 4′-[5-(2,6-difluorophenyl)-3,4-dihydro-2H-pyrrol-2-yl]-1,1′-biphenyl-4-ylcarbamate]",2.31,3.52,≥ 85,≥ 85,≥ 95,–
"CCCOC(=O)Nc1ccc(-c2ccc(C3CCC(c4c(F)cccc4F)=N3)cc2)cc1 (stereo not shown) [Compound 2, n-propyl 4′-[5-(2,6-difluorophenyl)-3,4-dihydro-2H-pyrrol-2-yl]-1,1′-biphenyl-4-ylcarbamate]",3.02,4.24,≥ 85,≥ 85,≥ 95,–
"CCCCOC(=O)N(C)c1ccc(-c2ccc(C3CCC(c4c(F)cccc4F)=N3)cc2)cc1 (stereo not shown) [Compound 3, n-butyl 4′-[5-(2,6-difluorophenyl)-3,4-dihydro-2H-pyrrol-2-yl]-1,1′-biphenyl-4-yl(methyl)carbamate]",3.76,4.92,–,–,–,–
"O=C1OCCN1c1ccc(-c2ccc(C3CCC(c4c(F)cccc4F)=N3)cc2)cc1 (stereo not shown) [Compound 4, 3-{4′-[5-(2,6-difluorophenyl)-3,4-dihydro-2H -pyrrol-2-yl]-1,1′-biphenyl-4-yl}-1,3-oxazolidin-2-one]",–,–,–,–,–,"chromatographic logP [1, 10]: 2.13; chromatographic logP [1, 11]: 3.28; pest or weed control at 100 ppm [3, 12]: ≥ 85%; pest or weed control at 100 ppm [4, 13]: ≥ 95%"
"O=C(Nc1ccc(-c2ccc(C3CCC(c4c(F)cccc4F)=N3)cc2)cc1)N1CCOCC1 (stereo not shown) [Compound 5, N-{4′-[5-(2,6-difluorophenyl)-3,4-dihydro-2H-pyrrol-2-yl]-1,1 ′-biphenyl-4-yl}-4-morpholinecarboxamide]",–,–,–,–,–,"chromatographic logP [1, 10]: 1.87; chromatographic logP [1, 11]: 2.96; pest or weed control at 100 ppm [4, 13]: ≥ 95%"
CCCCOC(=O)Nc1ccc(-c2ccc(C3CCC(c4c(F)cccc4F)=N3)cc2)cc1 (stereo not shown) [Compound 9],3.44,4.6,100,–,≥ 95,–
O=C(Nc1ccc(-c2ccc(C3CCC(c4c(F)cccc4F)=N3)cc2)cc1)OC1CCCCC1 (stereo not shown) [Compound 10],3.88,1.68,100,–,≥ 95,–
O=C(Nc1ccc(-c2ccc(C3CCC(c4c(F)cccc4F)=N3)cc2)cc1)N1CCCC1 (stereo not shown) [Compound 11],–,–,–,–,–,"chromatographic logP [1, 10]: 2.11; pest or weed control at 100 ppm [2, 14]: 100%"
O=C(Nc1ccc(-c2ccc(C3CCC(c4c(F)cccc4F)=N3)cc2)cc1)N1CCCCC1 (stereo not shown) [Compound 12],–,–,–,–,–,"chromatographic logP [1, 10]: 2.53; chromatographic logP [1, 11]: 3.71; pest or weed control at 100 ppm [2, 14]: 100%; pest or weed control at 100 ppm [4, 13]: ≥ 95%"
CCCCN(CC)C(=O)Nc1ccc(-c2ccc(C3CCC(c4c(F)cccc4F)=N3)cc2)cc1 (stereo not shown) [Compound 14],–,–,–,–,–,"chromatographic logP [1, 10]: 3.18; chromatographic logP [1, 11]: 4.36; pest or weed control at 100 ppm [4, 13]: ≥ 95%"
CC(C)C(C)OC(=O)Nc1ccc(-c2ccc(C3CCC(c4c(F)cccc4F)=N3)cc2)cc1 (stereo not shown) [Compound 16],3.82,4.77,≥ 85,–,–,–
CCCC(C)OC(=O)Nc1ccc(-c2ccc(C3CCC(c4c(F)cccc4F)=N3)cc2)cc1 (stereo not shown) [Compound 17],–,4.82,–,≥ 85,≥ 95,–
CCCCCOC(=O)Nc1ccc(-c2ccc(C3CCC(c4c(F)cccc4F)=N3)cc2)cc1 (stereo not shown) [Compound 18],3.87,4.89,≥ 85,–,≥ 95,–
CCCCCCOC(=O)Nc1ccc(-c2ccc(C3CCC(c4c(F)cccc4F)=N3)cc2)cc1 (stereo not shown) [Compound 19],4.46,5.26,≥ 85,≥ 85,–,–
CC(OC(=O)Nc1ccc(-c2ccc(C3CCC(c4c(F)cccc4F)=N3)cc2)cc1)c1ccccc1 (stereo not shown) [Compound 20],3.63,–,≥ 85,–,≥ 95,–
CC(C)CCOC(=O)Nc1ccc(-c2ccc(C3CCC(c4c(F)cccc4F)=N3)cc2)cc1 (stereo not shown) [Compound 21],3.72,–,≥ 85,–,≥ 95,–
O=C(Nc1ccccc1)Nc1ccc(-c2ccc(C3CCC(c4c(F)cccc4F)=N3)cc2)cn1 (stereo not shown) [Compound 22],–,–,–,–,–,"chromatographic logP [1, 10]: 2.71; chromatographic logP [1, 11]: 3.98; pest or weed control at 100 ppm [3, 12]: ≥ 85%; pest or weed control at 100 ppm [4, 13]: ≥ 95%"
CC(C)(C)COC(=O)Nc1ccc(-c2ccc(C3CCC(c4c(F)cccc4F)=N3)cc2)cc1 (stereo not shown) [Compound 23],3.76,–,–,≥ 85,≥ 95,–

Structure (SMILES),"chromatographic logP [1, 5]","chromatographic logP [1, 6]","pest or weed control at 100 ppm [2, 7] [%]","pest or weed control at 100 ppm [3, 8] [%]","pest or weed control at 100 ppm [4, 9] [%]",further results
CCC(CC)OC(=O)Nc1ccc(-c2ccc(C3CCC(c4c(F)cccc4F)=N3)cc2)cc1 (stereo not shown) [Compound 24],3.76,–,≥ 85,≥ 85,–,–
O=C(Nc1ccc(-c2ccc(C3CCC(c4c(F)cccc4F)=N3)cc2)cc1)OCCc1ccccc1 (stereo not shown) [Compound 25],3.62,4.64,≥ 85,–,≥ 95,–
O=C(Nc1ccc(-c2ccc(C3CCC(c4c(F)cccc4F)=N3)cc2)cc1)OCc1ccco1 (stereo not shown) [Compound 26],3.01,4.1,–,≥ 85,≥ 95,–
O=C(Nc1ccc(-c2ccc(C3CCC(c4c(F)cccc4F)=N3)cc2)cc1)OCc1cccs1 (stereo not shown) [Compound 27],3.28,4.36,≥ 85,≥ 85,≥ 95,–
CCCCC(CC)COCCOC(=O)Nc1ccc(-c2ccc(C3CCC(c4c(F)cccc4F)=N3)cc2)cc1 (stereo not shown) [Compound 28],5.13,5.97,–,≥ 85,≥ 95,–
CCCN(CCC)CCOC(=O)Nc1ccc(-c2ccc(C3CCC(c4c(F)cccc4F)=N3)cc2)cc1 (stereo not shown) [Compound 29],1.74,5.52,≥ 85,≥ 85,–,–
CN(C)CCOC(=O)Nc1ccc(-c2ccc(C3CCC(c4c(F)cccc4F)=N3)cc2)cc1 (stereo not shown) [Compound 30],1.37,–,–,≥ 85,≥ 95,–
COCCOC(=O)Nc1ccc(-c2ccc(C3CCC(c4c(F)cccc4F)=N3)cc2)cc1 (stereo not shown) [Compound 31],2.24,3.45,–,–,≥ 95,–
CCOCCOC(=O)Nc1ccc(-c2ccc(C3CCC(c4c(F)cccc4F)=N3)cc2)cc1 (stereo not shown) [Compound 32],2.52,3.75,≥ 85,≥ 85,–,–
O=C(Nc1ccc(-c2ccc(C3CCC(c4c(F)cccc4F)=N3)cc2)cc1)OCCOCCOCCCC(F)(F)C(F)(F)F (stereo not shown) [Compound 34],3.7,4.73,–,≥ 85,≥ 95,–
COC(=O)N(C)c1ccc(-c2ccc(C3CCC(c4c(F)cccc4F)=N3)cc2)cc1 (stereo not shown) [Compound 35],2.58,3.79,≥ 85,≥ 85,–,–
CCOC(=O)N(C)c1ccc(-c2ccc(C3CCC(c4c(F)cccc4F)=N3)cc2)cc1 (stereo not shown) [Compound 37],2.92,4.16,≥ 85,–,≥ 95,–
"COC(=O)Nc1ccc(Br)cc1 [III-1, methyl 4-bromophenylcarbamate]",2.27,–,–,–,–,–
"CCCOC(=O)Nc1ccc(Br)cc1 [III-2, n-propyl 4-bromophenylcarbamate]",3.12,–,–,–,–,–
"CCCCOC(=O)N(C)c1ccc(Br)cc1 [III-3, n-butyl-4-bromophenyl(methyl)carbamate]",3.88,–,–,–,–,–
"O=C1OCCN1c1ccc(Br)cc1 [III-4, 3-(4-bromophenyl)-1,3-oxazolidin-2-one]",–,–,–,–,–,"chromatographic logP [1, 10]: 2.02"
"O=C(Nc1ccc(Br)cc1)N1CCOCC1 [III-5, N-(4-bromophenyl)-4-morpholinecarboxamide]",–,–,–,–,–,"chromatographic logP [1, 10]: 1.75"
"Nc1ccc(-c2ccc(C3CCC(c4c(F)cccc4F)=N3)cc2)cc1 (stereo not shown) [VII-1, 4′-[5-(2,6-difluorophenyl)-3,4-dihydro-2H-pyrrol-2-yl]-1 ′-biphenyl-4-amine]",–,–,–,–,–,"chromatographic logP [1, 10]: 1.25"
